In patent US11950611B2, “Highly soluble Rebaudioside D” (PURECIRCLE SDN BHD, priority 2013, dated 2024):

Columns and labels:
[1] = cited from earlier work
[2] = room temperature, water; cited from earlier work
[3] = Solubility of Rebaudioside D (crystalline vs amorphous) in water; type: physicochemical; details: for water solubility: room temperature, g per 100 g solvent
Description: Hereinafter, unless specified otherwise the solubility of material is determined in RO (reverse osmosis) water at room temperature. […] The solution was maintained at 50° C. and dried using a YC-015 laboratory spray drier (Shanghai Pilotech Instrument & Equipment Co. Ltd., China) operating at 175° C. inlet and 100° C. outlet temperatures.

water solubility [3] | Structure (SMILES) | Rate of dissolution in H2O at 25° C. (in words) [1] | Rate of dissolution in H2O at 25° C., amount dissolved in 5 minutes [1] | also measured
 | C=C1C[C@@]23CC[C@H]4[C@@](C)(CCC[C@@]4(C)C(=O)O[C@@H]4O[C@H](CO)[C@@H](O)[C@H](O)[C@H]4O)[C@@H]2CC[C@]1(O[C@@H]1O[C@H](CO)[C@@H](O)[C@H](O[C@@H]2O[C@H](CO)[C@@H](O)[C@H](O)[C@H]2O)[C@H]1O[C@@H]1O[C@H](CO)[C@@H](O)[C@H](O)[C@H]1O)C3 [Form 4, Rebaudioside A] | High | (>35% in 5 | 
 | C=C1C[C@@]23CC[C@H]4[C@@](C)(CCC[C@@]4(C)C(=O)O[C@@H]4O[C@H](CO)[C@@H](O)[C@H](O)[C@H]4O)[C@@H]2CC[C@]1(O[C@@H]1O[C@H](CO)[C@@H](O)[C@H](O[C@@H]2O[C@H](CO)[C@@H](O)[C@H](O)[C@H]2O)[C@H]1O[C@@H]1O[C@H](CO)[C@@H](O)[C@H](O)[C@H]1O)C3 [Rebaudioside A] |  |  | thermodynamic equilibrium solubility [2]: 0.8%
 | C=C1C[C@@]23CC[C@H]4[C@@](C)(CCC[C@@]4(C)C(=O)O[C@@H]4O[C@H](CO)[C@@H](O)[C@H](O)[C@H]4O)[C@@H]2CC[C@]1(O[C@@H]1O[C@H](CO)[C@@H](O)[C@H](O[C@@H]2O[C@H](CO)[C@@H](O)[C@H](O)[C@H]2O)[C@H]1O[C@@H]1O[C@H](CO)[C@@H](O)[C@H](O)[C@H]1O)C3 [Form 2, Rebaudioside A] | Intermediate | (<30% in 5 | 
0.05% | C=C1C[C@@]23CC[C@H]4[C@@](C)(CCC[C@@]4(C)C(=O)O[C@@H]4O[C@H](CO)[C@@H](O)[C@H](O)[C@H]4O[C@@H]4O[C@H](CO)[C@@H](O)[C@H](O)[C@H]4O)[C@@H]2CC[C@]1(O[C@@H]1O[C@H](CO)[C@@H](O)[C@H](O[C@@H]2O[C@H](CO)[C@@H](O)[C@H](O)[C@H]2O)[C@H]1O[C@@H]1O[C@H](CO)[C@@H](O)[C@H](O)[C@H]1O)C3 [Rebaudioside D] |  |  | water solubility when heat is applied ([3]; heated, upon cooling to room temperature crystallizes back out): up to 0.5%
0.05% | C=C1C[C@@]23CC[C@H]4[C@@](C)(CCC[C@@]4(C)C(=O)O[C@@H]4O[C@H](CO)[C@@H](O)[C@H](O)[C@H]4O[C@@H]4O[C@H](CO)[C@@H](O)[C@H](O)[C@H]4O)[C@@H]2CC[C@]1(O[C@@H]1O[C@H](CO)[C@@H](O)[C@H](O[C@@H]2O[C@H](CO)[C@@H](O)[C@H](O)[C@H]2O)[C@H]1O[C@@H]1O[C@H](CO)[C@@H](O)[C@H](O)[C@H]1O)C3 [crystalline Rebaudioside D, Rebaudioside D] |  |  | Solubility, % (in water) 20° C. ([3]; water, 20° C.): 0.05%; Solubility, % (in water) 50° C.* ([3]; water, 50° C., solution crystallized after cooling to room temperature (20° C.)): 0.2%; Solubility, % (in water) 100° C.* ([3]; water, 100° C., solution crystallized after cooling to room temperature (20° C.)): 0.5%
 | C=C1C[C@@]23CC[C@H]4[C@@](C)(CCC[C@@]4(C)C(=O)O[C@@H]4O[C@H](CO)[C@@H](O)[C@H](O)[C@H]4O)[C@@H]2CC[C@]1(O[C@@H]1O[C@H](CO)[C@@H](O)[C@H](O[C@@H]2O[C@H](CO)[C@@H](O)[C@H](O)[C@H]2O)[C@H]1O[C@@H]1O[C@H](CO)[C@@H](O)[C@H](O)[C@H]1O)C3 [Form 1, Rebaudioside A] | Very low |  | Rate of dissolution in H2O at 25° C., amount dissolved in 60 minutes ([1]; in 60 minutes): (<0.2% in 60
0.2% | C=C1C[C@@]23CC[C@H]4[C@@](C)(CCC[C@@]4(C)C(=O)O[C@@H]4O[C@H](CO)[C@@H](O)[C@H](O)[C@H]4O[C@@H]4O[C@H](CO)[C@@H](O)[C@H](O)[C@H]4O)[C@@H]2CC[C@]1(O[C@@H]1O[C@H](CO)[C@@H](O)[C@H](O[C@@H]2O[C@H](CO)[C@@H](O)[C@H](O)[C@H]2O)[C@H]1O[C@@H]1O[C@H](CO)[C@@H](O)[C@H](O)[C@H]1O)C3 [amorphous Reb D, Rebaudioside D] |  |  | 
 | C=C1C[C@@]23CC[C@H]4[C@@](C)(CCC[C@@]4(C)C(=O)O[C@@H]4O[C@H](CO)[C@@H](O)[C@H](O)[C@H]4O)[C@@H]2CC[C@]1(O[C@@H]1O[C@H](CO)[C@@H](O)[C@H](O[C@@H]2O[C@H](CO)[C@@H](O)[C@H](O)[C@H]2O)[C@H]1O[C@@H]1O[C@H](CO)[C@@H](O)[C@H](O)[C@H]1O)C3 [Form 3, Rebaudioside A] | High | (>30% in 5 | 
